# Patent US7939499B2, “Method for increasing cardiac mass and performance” (Trustees of Dartmouth College, priority 2005, dated 2011)
# Marks after values point to notes of the source that are not given here. Where no end group is shown, it is not given here.
# Tests used:
# Type in all cases: in vivo, mouse
# [1] = test system: transgenic mice with myocardial-specific expression of PR39; experiment: Endothelial cell mass (I131-labeled anti-PECAM antibody perfusion) and direct capillary counting in PR39 transgenic mice
# Excerpt: (§1) To monitor PR39 expression, β-galactosidase was expressed bicistronically.
# Three weeks after induction of PR39 expression in 6-8 week-old mice, a significant increase in the endothelial cell mass was observed as determined by in vivo perfusion with an I^131-labeled anti-PECAM antibody and direct capillary counting (Table 1).
# (§2) Full-length porcine PR39 cDNA was inserted into a tetracycline-responsive vector system and a tetracycline transactivator was placed under transcriptional control of an α-myosin heavy chain promoter. The resulting tetracycline-responsive system was microinjected into fertilized mouse eggs. PCR analysis of genomic DNA from mouse tail tissue confirmed integration into the mouse genome. Independent transgenic lines were established and used for the analysis disclosed herein.
# [2] = test system: transgenic mice with myocardial-specific expression of PR39; experiment: Heart size, myocardial mass and myocyte cross-sectional area after induction of PR39 expression
# Excerpt: as §1
# Six weeks after induction of PR39 expression, a large increase in the heart size was observed that was attributable to increased ventricular wall thickness and a mild increase in the left ventricle chamber size.
# as §2
# [3] = test system: transgenic mice with myocardial-specific expression of PR39; experiment: Echocardiographic and pressure-volume loop analysis of myocardial function
# Experimental: as §1
# To determine whether this endothelial-driven myocardial hypertrophy affected cardiac performance, echocardiographic and pressure-volume loop analysis of myocardial function was performed following induction of PR39 expression. In agreement with morphologic observations, heart expressing PR39 had somewhat larger left ventricular end-diastolic volume and end-diastolic diameter (Table 2). There was a significant enhancement of systolic performance as indicated by decreased left ventricle end-systolic volume and increases in the […], +dP/dT, maximal-generated left ventricle pressure and cardiac output (Table 2). Unexpectedly, there was also a significant improvement in diastolic function as indicated by reduced tau and −dP/dt (Table 2).
# To evaluate the robustness of the observed increase in myocardial size and functional improvement, PR39 expression was shut off six weeks after its induction and the mice were re-examined three weeks later. Both the increase in the myocardial mass and improvements in the systolic and diastolic function were maintained at that time.
# as §2
# [4] = test system: ANF, βMHC and skeletal α-actin gene expression; experiment: Expression of myocyte hypertrophy markers; settings: 6 weeks after PR39 expression induction (not at 3 weeks)
# Excerpt: (§3) To gain further insight into the nature of the hypertrophy process, expression of myocyte hypertrophy markers was examined. […] These findings are consistent with an increase in endothelial cell mass, […] an increase in cardiac size, largely driven by myocyte hypertrophy accompanied by an induction of a typical hypertrophic response.
# [5] = test system: endothelial cells and cardiac myocytes; experiment: Immunocytochemical staining with anti-Ki67 antibody (proliferation); settings: after induction of PR39 expression
# Excerpt: as §3
# [6] = six weeks after induction of PR39 expression
# [7] = six weeks following induction of PR39 expression
# [8] = six weeks induction of PR39 expression followed by 3 weeks repression
substance,measurement,setting,value
PR39: Angiogenic proline/arginine-rich peptide; full-length porcine PR39 cDNA expressed myocardial-specifically in tetracycline-regulated transgenic mice (mature peptide SEQ ID NO:3) (RRRPRPPYLPRPRPPPFFPPRLPPRIPPGFPPRFPPRFP-NH2; listed as Sus scrofa),Capillary density per gram of myocardial tissue,[1]; [6],returned to values seen in control mice
same,Capillary Density (Capillary/50 μm^2),[1]; three weeks after induction of PR39 expression in 6-8 week-old mice,5.90 ± 0.12 Capillary/50 μm^2
same,Anti-PECAM (μg antibody/gram tissue),"[1]; three weeks after induction of PR39 expression in 6-8 week-old mice, endothelial cell mass",0.52 ± 0.07 μg antibody/gram tissue
same,Increase in myocardial mass,[2]; cardiac-specific overexpression of PR39,50%
same,Heart size,[2]; [6],0.15±0.01 gram
same,Myocyte area increase (cross-sectional area of enzymatically dispersed cardiac myocytes),[2]; [6],30%
same,Heart enlargement,"[2]; six weeks after induction of PR39 expression, vs non-transgenic mice",35%
same,Heart size after repression of PR39 expression,"[2]; six weeks induction, then 3 weeks repression of PR39 expression",remained unchanged
same,Increase in myocardial mass and improvements in systolic and diastolic function after shut-off,"[3]; PR39 expression shut off six weeks after induction, re-examined three weeks later",maintained
same,Left Ventricle Mass,[3]; [7],74 ± 1.1^a mg
same,Left Ventricle internal dimension systolic,[3]; [7],2.28 ± 0.20^c mm
same,Cardiac output,[3]; [8],9046 ± 239^a μL/minute
same,Ejection fraction,[3]; [8],85.06 ± 0.76^a %
same,End diastolic pressure,[3]; [8],7.17 ± 0.17^a mmHg
same,End diastolic volume,[3]; [8],18.78 ± 0.31^a μL
same,End systolic pressure,[3]; [8],70.49 ± 0.99^b mmHg
same,End systolic volume,[3]; [8],3.26 ± 0.15^a μL
same,Maximum dP/dt,[3]; [8],8809 ± 167^a mmHg/second
same,Maximum pressure,[3]; [8],92.26 ± 0.54^a mmHg
same,Maximum volume,[3]; [8],20.15 ± 0.29^a μL
same,Minimum dP/dt,[3]; [8],−7503 ± 123^a mmHg/second
same,Minimum pressure,[3]; [8],3.79 ± 0.15^a mmHg
same,Minimum volume,[3]; [8],2.86 ± 0.13^a μL
same,Stroke volume,[3]; [8],17.29 ± 0.32^a μL
same,Tau-w,[3]; [8],6.0 ± 0.1^a msec
same,"ANF, βMHC and skeletal α-actin gene expression",[4],marked increase
same,Proliferation of endothelial cells between myocyte bundles (anti-Ki67),[5],increased proliferation
same,Proliferation of cardiac myocytes (anti-Ki67),[5]; multiple sections,no proliferation
